Reference: patent US11332463B2, “Spiropiperidine allosteric modulators of nicotinic acetylcholine receptors” (Merck Sharp & Dohme Corp., priority 2018, dated 2022)
Where two headings read alike, the source gives them in different places.

Target: T1, human α7 nicotinic acetylcholine receptor (HEK cell line stably expressing human RIC-3 and human α7) (Homo sapiens, UniProt P36544)
T1 construct: host or cells: HEK cell line (PrecisION hnAChR α7/RIC-3)
Assay: Automated patch-clamp electrophysiology functional assay (Assay A), IonFlux HT, whole-cell population patch
Type: cell-based

[1] = HEK cells expressing human α7/RIC-3, test compound with or without 40 μM acetylcholine, holding potential −60 mV, room temperature, read-out: α7 nAChR Potency
[2] = automated patch-clamp electrophysiology functional assay (Assay A), read-out: α7 nAChR EC50
[3] = α7 nAChR EC50 (nM), automated patch-clamp electrophysiology functional assay (Assay A)
[4] = α7 nAChR Potency, HEK cells expressing human α7/RIC-3, test compound with or without 40 μM acetylcholine, holding potential −60 mV, room temperature

T1 sequence (P36544 23-502): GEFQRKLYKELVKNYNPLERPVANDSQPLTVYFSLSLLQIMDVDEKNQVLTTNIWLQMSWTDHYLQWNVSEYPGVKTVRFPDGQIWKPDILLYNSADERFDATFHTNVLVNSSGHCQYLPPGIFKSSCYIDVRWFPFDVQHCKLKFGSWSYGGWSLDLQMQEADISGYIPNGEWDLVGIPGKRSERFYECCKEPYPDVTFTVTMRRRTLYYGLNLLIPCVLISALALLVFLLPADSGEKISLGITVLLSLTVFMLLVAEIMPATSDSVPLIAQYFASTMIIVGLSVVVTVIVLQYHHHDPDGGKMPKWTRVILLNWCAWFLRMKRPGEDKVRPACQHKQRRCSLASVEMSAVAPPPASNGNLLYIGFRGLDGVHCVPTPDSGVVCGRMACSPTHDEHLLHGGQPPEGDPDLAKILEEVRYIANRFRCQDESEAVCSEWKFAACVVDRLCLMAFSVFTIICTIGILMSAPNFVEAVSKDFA

SMILES	EC50 [1] [nM]	EC50 [2] [nM]	EC50 [3] [nM]	EC50 [4] [nM]
NS(=O)(=O)N1CCC2(CC1)C[C@H]2c1noc(-c2cnccc2C(F)(F)F)n1 [Example E57]	500 to 5000			
NS(=O)(=O)N1CCC2(CC1)C[C@H]2c1noc(-c2cccnc2C(F)(F)F)n1 [Example E58]	500 to 5000	3400		
NS(=O)(=O)N1CCC2(CC1)C[C@H]2c1noc(-c2cccnc2OCC(F)(F)F)n1 [Example E59]	100 to 500	220		
NS(=O)(=O)N1CCC2(CC1)C[C@H]2c1noc(-c2cncc(OCC(F)(F)F)c2)n1 [Example E60]	500 to 5000	2300		
Cc1ncc(C(F)(F)F)cc1-c1nc([C@@H]2CC23CCN(S(N)(=O)=O)CC3)no1 [Example E61]	500 to 5000	1500		
CC(C)n1nccc1-c1nc([C@@H]2CC23CCN(S(N)(=O)=O)CC3)no1 [Example E62]	500 to 5000	1500		
NS(=O)(=O)N1CCC2(CC1)C[C@H]2c1noc(-c2ccc(OCC(F)(F)F)nc2)n1 [Example E63]	500 to 5000			
Cc1cnn(C2CC2)c1-c1nc([C@@H]2CC23CCN(S(N)(=O)=O)CC3)no1 [Example E64]	500 to 5000	520		
Cn1nc2c(c1-c1nc([C@@H]3CC34CCN(S(N)(=O)=O)CC4)no1)CCCC2 [Example E65]	100 to 500	420		
Cn1nc2c(c1-c1nc([C@@H]3C(F)(F)C34CCN(S(N)(=O)=O)CC4)no1)CCCC2 [Example E66]	100 to 500	120		
NS(=O)(=O)N1CCC2(CC1)[C@H](c1noc(-c3ccccn3)n1)C2(F)F [Example E67]	500 to 5000	2100		
NS(=O)(=O)N1CCC2(CC1)[C@H](c1noc(-c3conc3C(F)(F)F)n1)C2(F)F [Example E68]	500 to 5000	680		
NS(=O)(=O)N1CCC2(CC1)C[C@H]2c1noc(-c2cccc3c2CCC3)n1 [Example E69]	< 100			
NS(=O)(=O)N1CCC2(CC1)C[C@H]2c1noc(-c2cccc(-n3nccc3C(F)(F)F)c2)n1 [Example E70]	500 to 5000	2300		
NS(=O)(=O)N1CCC2(CC1)C[C@H]2c1noc(-c2ccccc2Oc2ccccc2)n1 [Example E71]	100 to 500	360		
NS(=O)(=O)N1CCC2(CC1)C[C@H]2c1noc(-c2ccc3c(c2)CCCC3)n1 [Example E72]	100 to 500	110		
NS(=O)(=O)N1CCC2(CC1)C[C@H]2c1noc(-c2ccccc2-n2cccc2)n1 [Example E73]	500 to 5000	640		
NS(=O)(=O)N1CCC2(CC1)C[C@H]2c1noc(-c2cccc(-c3ccc(F)cc3)c2)n1 [Example E74]	100 to 500			
N#CC1(c2ccccc2-c2nc([C@@H]3CC34CCN(S(N)(=O)=O)CC4)no2)CC1 [Example E75]	5000 to 50000	6300		
NS(=O)(=O)N1CCC2(CC1)C[C@H]2c1noc(-c2ccccc2-c2ncccn2)n1 [Example E76]	500 to 5000	3200		
NS(=O)(=O)N1CCC2(CC1)C[C@H]2c1noc(-c2ccccc2-n2cccn2)n1 [Example E77]	500 to 5000	850		
NS(=O)(=O)N1CCC2(CC1)C[C@H]2c1noc(-c2ncccc2OCC(F)(F)F)n1 [Example E78]	500 to 5000	1200		
NS(=O)(=O)N1CCC2(CC1)C[C@H]2c1nnc(-c2cccc(OC(F)F)c2)s1 [Example F10]			450	100 to 500
Cc1onc(C2CC2)c1-c1nnc([C@@H]2CC23CCN(S(N)(=O)=O)CC3)o1 [Example F11]			410	100 to 500

Further lines, with some results ahead:

EC50 [1] [nM]	EC50 [2] [nM]	SMILES	EC50 [3] [nM]	EC50 [4] [nM]
500 to 5000	1500	NS(=O)(=O)N1CCC2(CC1)C[C@H]2c1nnc(-c2ccc(F)cc2C(F)(F)F)o1 [Example F1]		
500 to 5000		NS(=O)(=O)N1CCC2(CC1)C[C@H]2c1nnc(-c2cccc(C(F)(F)F)c2)o1 [Example F2]		
500 to 5000	700	NS(=O)(=O)N1CCC2(CC1)C[C@H]2c1nnc(-c2cccc(OC(F)(F)F)c2)o1 [Example F3]		
500 to 5000	1100	NS(=O)(=O)N1CCC2(CC1)C[C@H]2c1nnc(-c2cc(F)ccc2F)s1 [Example F4]		
100 to 500	420	Cc1ccc(F)cc1-c1nnc([C@@H]2CC23CCN(S(N)(=O)=O)CC3)o1 [Example F5]		
500 to 5000	590	NS(=O)(=O)N1CCC2(CC1)C[C@H]2c1nnc(-c2ccccc2OCC(F)(F)F)o1 [Example F6]		
100 to 500	480	NS(=O)(=O)N1CCC2(CC1)C[C@H]2c1nnc(-c2ccccc2OCC(F)(F)F)s1 [Example F7]		
500 to 5000	750	Cc1ccccc1-c1nnc([C@@H]2CC23CCN(S(N)(=O)=O)CC3)s1 [Example F8]		
500 to 5000	750	NS(=O)(=O)N1CCC2(CC1)C[C@H]2c1nnc(-c2ccc(F)cc2C(F)(F)F)s1 [Example F9]		
500 to 5000	850	Cc1onc(C2CC2)c1-c1nnc([C@@H]2CC23CCN(S(N)(=O)=O)CC3)s1 [Example F12]		
100 to 500	400	Cc1ccccc1-c1nnc([C@@H]2C(F)(F)C23CCN(S(N)(=O)=O)CC3)o1 [Example F13]		
100 to 500	290	Cc1ccccc1-c1nnc([C@@H]2C(F)(F)C23CCN(S(N)(=O)=O)CC3)s1 [Example F14]		
500 to 5000	4000	NS(=O)(=O)N1CCC2(CC1)C[C@H]2c1nc(-c2ccccc2)co1 [Example G1]		
500 to 5000	910	NS(=O)(=O)N1CCC2(CC1)C[C@H]2c1csc(-c2conc2C2CC2)n1 [Example G2]		
500 to 5000		Cc1noc(C)c1-n1cc([C@@H]2CC23CCN(S(N)(=O)=O)CC3)cn1 [Example G3]		
100 to 500	110	NS(=O)(=O)N1CCC2(CC1)[C@H](c1csc(-c3conc3C3CC3)n1)C2(F)F [Example G4]		
< 100	91	NS(=O)(=O)N1CCC2(CC1)[C@H](c1ncc(-c3ccc(F)cc3C(F)(F)F)o1)C2(F)F [Example G5]		
< 100	86	NS(=O)(=O)N1CCC2(CC1)[C@H](c1cc(-c3ccnc(OC(F)F)c3)no1)C2(F)F [Example G6]		
500 to 5000	1600	Cn1cc(-c2conc2C2CC2)nc1[C@@H]1C(F)(F)C12CCN(S(N)(=O)=O)CC2 [Example G7]		
< 100	16	NS(=O)(=O)N1CCC2(CC1)[C@H](c1cc(-c3conc3C3CC3)no1)C2(F)F [Example G8]		
< 100	78	NS(=O)(=O)N1CCC2(CC1)[C@H](c1cc(-c3ccc(F)cc3C(F)(F)F)on1)C2(F)F [Example G9]		
< 100	28	NS(=O)(=O)N1CCC2(CC1)[C@H](c1nc(-c3ccc(F)cc3C(F)(F)F)co1)C2(F)F [Example G10]		
100 to 500	120	NS(=O)(=O)N1CCC2(CC1)[C@H](c1cc(-c3ccc(F)cc3C(F)(F)F)ns1)C2(F)F [Example G11]		
5000 to 50000		COc1ccc(Cl)cc1-c1noc([C@H]2CC23CCN(S(N)(=O)=O)CC3)n1 [Example H1]		
500 to 5000	2900	NS(=O)(=O)N1CCC2(CC1)[C@@H](c1nc(-c3ccc(F)cc3C(F)(F)F)no1)C2(F)F [Example H2]		
